Measured values taken from patent US20240100013A1, “SOTAGLIFLOZIN FOR IMPROVING LEFT ATRIAL FUNCTION” (CHARITÉ-UNIVERSITÄTSMEDIZIN BERLIN, priority 2021, published 2024).

Test system: LA cardiomyocytes
Experiment: Mitochondrial depolarization (TMRE) in LA cardiomyocytes
Format: cell-based, rat
Details: differences between groups
Experimental: Mitochondrial depolarization. LA cardiomyocytes were loaded with TMRE and MitoTracker green, transferred to an LSM 800 laser scanning microscope and kept in Tyrode's solution containing 2 mM Ca^2+ and 10 nM TMRE. Two-dimensional images of TMRE (excitation: 561 nm, emission: 565-585 nm) and MitoTracker green fluorescence (excitation: 488 nm, emission: 505-525 nm) were acquired for a duration of 6 min (interval: 2 s, resolution: 512×512 px, pixel size: 1.25 μm, pixel time: 1.03 μs, laser intensity: 4%). A binary mask of both channels was derived using a Bernsen thresholding algorithm (ImageJ). Positive pixels of the MitoTracker green image were defined as mitochondria and a positive overlay of the TMRE image assumed to indicate a polarized state. The standard deviation of polarized mitochondria over time was taken as a measure of spatiotemporal oscillation.

Compound: CCOc1ccc(Cc2cc([C@@H]3O[C@H](SC)[C@@H](O)[C@H](O)[C@H]3O)ccc2Cl)cc1 [sotagliflozin, (2S,3R,4R,5S,6R)-2-(4-chloro-3-(4-ethoxybenzyl)phenyl)-6-(methylthio)tetrahydro-2H-pyran-3,4,5-triol]
- incidence and spatial distribution of mitochondrial depolarizations: could not be detected
